Laboratory results: patent US5164295A, “Method for identifying amyloid protein-extracellular matrix protein affinity altering compounds” (The Upjohn Company, priority 1991, dated 1992)
Values belong to the compound of their own block, whether it stands above or below them.

Columns and labels:
[1] = molecular target: T1, HSPG binding to AAP695 /s (Homo sapiens, UniProt P05067); assay: Effect of test compounds on intact HSPG binding to immobilized AAP695 /s (ELISA); conditions: for Activity: binding of intact HSPG, percentage ± SD of control: AAP695 /S, HSPG 2 μg/ml; for HSPG binding, % of control: AAP695
T1 construct: maintained the entire extracellular portion of the AAP; made in house; host or cells: insect cells (recombinant baculovirus)
Description: (§1) The assay comprised immobilizing AAP695 /s which was then exposed to free HSPG in the absence or presence of test compounds. Other aspects of the assay included exposing free HSPG to either immobilized AAP751 /s, or AAP770 /s, each in the absence or presence of test compounds. The assay was also performed with fibronectin as the immobilized protein in order to provide a positive control. In each case, a series of concentrations of HSPG and test compounds was used. Additionally, to determine whether or not the carbohydrate moiety of HSPG was involved in the binding to immobilized components, the carbohydrate moiety of HSPG was removed and assays were performed using the carbohydrate-free HSPG core protein. The test compounds used in experiments described here include heparin, dextran sulfate, chondroitin sulfate, dermatan sulfate, fibronectin, gelatin, bovine serum albumin (BSA), Ca^++ (CaCl2), Mg^++ (MgCl2), Mn^++ (MnCl2), Co^++ (Co(NO3)2), and Zn^++ (ZnCl2).
(§2) The assay used in studying the interaction between HSPG and protein ligands was an ELISA technique. Briefly, polystyrene micro-titer plates (Linbro, Flow Lab Inc.) were coated with a 100 μl solution, containing 1 μg/ml of the protein of interest (one of the three forms of AAP or fibronectin) in 20 mM NaHCO3 buffer pH 9.6. After incubation overnight at 4° C., the plates were rinsed with 0.15M NaCl, 20 mM Tris-Cl pH 7.5 (TBS). The plates were then incubated with 150 μl of 1% BSA in TBS for 2 hours at 37° C. to block the residual hydrophobic surface on the wells. After rinsing with TBS containing 0.05% (w/v) Tween 20 (TBS-Tween), 100 μl of various concentrations of HSPG in TBS-Tween were added. The plates were left overnight at 4° C., to permit maximum binding of HSPG to the coated proteins. The plates were then washed extensively and incubated for 2 hours at 37° C., with 100 μl of anti-HSPG diluted in TBS-Tween containing 0.1% BSA. The plates were washed again and incubated for another 2 hours with 100 μl of goat anti-rabbit-IgG conjugated with alkaline phosphatase (1:2000 dilution) in TBS-Tween containing BSA as above. Finally, after further washing, the bound antibodies were detected by adding an alkaline phosphatase substrate solution (100 μl) containing 2 mg/ml p-nitrophenyl phosphate, 0.1 mM ZnCl2, 1 mM MgCl2 and 100 mM glycine pH 10. The plates were left at room temperature for 15-120 minutes depending on the protein tested. The enzyme reaction was stopped by addition of 50 μl of 2M NaOH. The absorbance of the released p-nitrophenol was measured at 405 nm with a Titertek Multiscan/MCC 340 (Flow Lab. Ltd.). The amounts of HSPG bound were determined by the net OD405 after substracting the OD from the blank wells in which the HSPG incubation step was omitted. When the actual amounts of HSPG bound were to be calculated, a set of standards (0.05-50 ng/well) of HSPG in NaHCO3 buffer were pre-coated into wells on the same plates as the test proteins. The incubations proceeded as described above omitting the incubation of the HSPG solution with the HSPG standard coated wells. The actual amounts of HSPG bound to the test proteins were calculated from the OD405 standard curve produced by the HSPG standards using a Titersoft II E.J.A. software program (Flow Lab. Ltd.).
(§3) Heparin and dextran sulfate, respectively, were each used as test compounds to determine their effect on the HSPG binding to AAP forms and fibronectin. Various concentrations of heparin or dextran sulfate were added together with a constant amount of HSPG to wells coated with AAPs for fibronectin.

[2] = molecular target: T2, HSPG binding to AAP751 /s (Homo sapiens, UniProt P05067); assay: Effect of test compounds on intact HSPG binding to immobilized AAP751 /s (ELISA); design: effect of increasing concentration on degree of HSPG binding to AAP751 /s: dose or concentration left out as unconfirmed; conditions: for Activity: binding of intact HSPG, percentage ± SD of control: AAP751 /S, HSPG 2 μg/ml; for HSPG binding, % of control: AAP751
T2 construct: maintained the entire extracellular portion of the AAP; made in house; host or cells: insect cells (recombinant baculovirus)
Description: as §1, §2, §3

[3] = system: HSPG binding to fibronectin; assay: Effect of test compounds on intact HSPG binding to immobilized fibronectin (ELISA); design: species or system bovine; effect of increasing concentration on degree of HSPG binding to fibronectin: dose or concentration left out as unconfirmed; conditions: for Activity: binding of intact HSPG, percentage ± SD of control: Fibronectin, HSPG 2 μg/ml; for inhibition of HSPG binding to immobilized fibronectin: test compound 50 μg/ml; for HSPG binding, % of control: fibronectin
Description: as §1
Fibronectin (from bovine plasma), heparin (grade II from porcine intestinal mucosa, average molecular weight=[…]), heparan sulfate, chondroitin sulfate, dextran sulfate, BSA, and alkaline phosphatase substrate were obtained from Sigma, St. Louis, Mo. Alkaline phosphatase conjugated goat anti-rabbit IgG was obtained from Boehringer-Manneheim, and heparitinase from ICN Biochemicals.
as §2, §3

[4] = system: HSPG binding to AAP proteins and fibronectin; assay: Effect of test compounds on HSPG binding, stated collectively for the immobilized proteins; conditions: for effect on HSPG binding to any AAP protein tested (negated sentence: 'Neither ... had any effect'): even at 4000 μg/ml
Description: as §1, §2
In addition to test compounds described above, other compounds were tested to determine their effect upon HSPG-AAP binding.

[5] = test compound 500 μg/ml (Table II)

Compound: dermatan sulfate
Activity: binding of intact HSPG, percentage ± SD of control ([1]; addition 4 mg/ml): 121 ± 14%
Activity: binding of intact HSPG, percentage ± SD of control ([2]; addition 4 mg/ml): 127 ± 30%
Activity: binding of intact HSPG, percentage ± SD of control ([3]; addition 4 mg/ml): 107 ± 20.6%
effect on HSPG binding to any AAP protein tested (negated sentence: 'Neither ... had any effect') [4]: had any effect

Activity: binding of intact HSPG, percentage ± SD of control ([1]; addition 50 μg/ml): 50.5 ± 18.4%
inhibition of HSPG binding to AAP695 /s ([1]; test compound 50 μg/ml): 50%
Activity: binding of intact HSPG, percentage ± SD of control ([2]; addition 50 μg/ml): 60.2 ± 8.3%
inhibition of HSPG binding to AAP751 /s ([2]; test compound 50 μg/ml): 40%
Activity: binding of intact HSPG, percentage ± SD of control ([3]; addition 50 μg/ml): 28.5 ± 16.5%
inhibition of HSPG binding to immobilized fibronectin [3]: 70%
Compound: Gelatin

Activity: binding of intact HSPG, percentage ± SD of control ([1]; addition 10 mM): 102.5 ± 6.4%
Activity: binding of intact HSPG, percentage ± SD of control ([2]; addition 10 mM): 102.5 ± 7.8%
Activity: binding of intact HSPG, percentage ± SD of control ([3]; addition 10 mM): 105 ± 9.9%
effect of divalent metal ion on HSPG binding ([4]; 10 mM): unaffected
Compound: [Cl-].[Cl-].[Mg+2] [MgCl2]

Activity: binding of intact HSPG, percentage ± SD of control ([1]; addition 0.1 mM): 31 ± 8.1%
inhibition of HSPG binding to AAP695 /s ([1]; test compound 0.1 mM): 70%
Activity: binding of intact HSPG, percentage ± SD of control ([2]; addition 0.1 mM): 85.5 ± 9%
Activity: binding of intact HSPG, percentage ± SD of control ([3]; addition 0.1 mM): 44 ± 14.6%
inhibition of HSPG binding to fibronectin ([3]; test compound 0.1 mM): 55%
Compound: [Cl-].[Cl-].[Zn+2] [ZnCl2]

Activity: binding of intact HSPG, percentage ± SD of control ([1]; addition 4 mg/ml): 110 ± 15.3%
Activity: binding of intact HSPG, percentage ± SD of control ([2]; addition 4 mg/ml): 110 ± 24.2%
Activity: binding of intact HSPG, percentage ± SD of control ([3]; addition 4 mg/ml): 107 ± 10.8%
effect on HSPG binding to any AAP protein tested (negated sentence: 'Neither ... had any effect') [4]: had any effect
Compound: chondroitin sulfate

Activity: binding of intact HSPG, percentage ± SD of control ([1]; addition 4 mM): 92.5 ± 7.7%
Activity: binding of intact HSPG, percentage ± SD of control ([2]; addition 4 mM): 105.5 ± 3.5%
Activity: binding of intact HSPG, percentage ± SD of control ([3]; addition 4 mM): 101.5 ± 2.1%
effect of divalent metal ion on HSPG binding ([4]; 3 mM): unaffected
Compound: [Ca+2].[Cl-].[Cl-] [CaCl2]

Compound: O=[N+]([O-])[O-].O=[N+]([O-])[O-].[Co+2] [Co (NO3), Co(NO3)2]
Activity: binding of intact HSPG, percentage ± SD of control ([1]; addition 0.1 mM): 97.3 ± 2.5%
Activity: binding of intact HSPG, percentage ± SD of control ([2]; addition 0.1 mM): 91 ± 8.5%
Activity: binding of intact HSPG, percentage ± SD of control ([3]; addition 0.1 mM): 100 ± 14%
effect of divalent metal ion on HSPG binding ([4]; 0.1 mM): unaffected

Activity: binding of intact HSPG, percentage ± SD of control ([1]; addition 50 μg/ml): 76.3 ± 9.5%
Activity: binding of intact HSPG, percentage ± SD of control ([2]; addition 50 μg/ml): 103.7 ± 14.5%
Activity: binding of intact HSPG, percentage ± SD of control ([3]; addition 50 μg/ml): 33.4 ± 18.4%
inhibition of HSPG binding to immobilized fibronectin [3]: 65%
interference with HSPG binding to the AAPs ([4]; test compound 50 μg/ml in solution, the AAPs): only moderately interferes
Compound: Fibronectin: Fibronectin from bovine plasma (Sigma), added in solution as test compound

Activity: binding of intact HSPG, percentage ± SD of control ([1]; addition 4 mM): 107 ± 18.3%
Activity: binding of intact HSPG, percentage ± SD of control ([2]; addition 4 mM): 106 ± 19.7%
Activity: binding of intact HSPG, percentage ± SD of control ([3]; addition 4 mM): 101.5 ± 9.2%
effect of divalent metal ion on HSPG binding ([4]; 4 mM): unaffected
Compound: [Cl][Mn][Cl] [MnCl2]

mode of inhibition of HSPG binding to AAP695 /s [1]: probably competitive
Activity: binding of intact HSPG, percentage ± SD of control ([1]; addition 500 μg/ml): 8.5 ± 2.4%
HSPG binding, % of control ([1]; test compound 31.2 μg/ml): 14%
HSPG binding, % of control ([1]; test compound 62.5 μg/ml): 11%
HSPG binding, % of control ([1]; test compound 125 μg/ml): 9%
HSPG binding, % of control ([1]; test compound 250 μg/ml): 11%
HSPG binding, % of control [1, 5]: 11%
inhibition of HSPG binding to AAP695 /s ([1]; test compound 32 μg/ml): about 85%
mode of inhibition of HSPG binding to AAP751 /s [2]: noncompetitive
Activity: binding of intact HSPG, percentage ± SD of control ([2]; addition 500 μg/ml): 63 ± 8.6%
HSPG binding, % of control ([2]; test compound 31.2 μg/ml): 74%
HSPG binding, % of control ([2]; test compound 62.5 μg/ml): 71%
HSPG binding, % of control ([2]; test compound 125 μg/ml): 67%
HSPG binding, % of control ([2]; test compound 250 μg/ml): 68%
HSPG binding, % of control [2, 5]: 63%
effect of increasing concentration on degree of HSPG binding to AAP751 /s ([2]; concentration increased): did not further decrease
inhibition of HSPG binding to AAP751 /s ([2]; test compound 32 μg/ml): 30%
mode of inhibition of HSPG binding to fibronectin [3]: noncompetitive
Activity: binding of intact HSPG, percentage ± SD of control ([3]; addition 500 μg/ml): 71 ± 10.8%
effect of increasing concentration on degree of HSPG binding to fibronectin ([3]; concentration increased): did not further decrease
HSPG binding, % of control ([3]; test compound 31.2 μg/ml): 67%
HSPG binding, % of control ([3]; test compound 62.5 μg/ml): 70%
HSPG binding, % of control ([3]; test compound 125 μg/ml): 68%
HSPG binding, % of control ([3]; test compound 250 μg/ml): 63%
HSPG binding, % of control [3, 5]: 60%
inhibition of HSPG binding to fibronectin ([3]; test compound 32 μg/ml): 30%
Compound: dextran sulfate
